Data: article PMC11258623 (ESMO Open, 2024)

What was measured:
[1] = Paclitaxel plasma pharmacokinetics; type: in vivo, human; conditions: paclitaxel 60 mg/m^2; with daily oral TAK-659
[2] = tested on: patients with advanced solid tumors; type: in vivo, human
CYP3A4 = conditions: overlapping elimination mechanisms; cited from earlier work
[3] = TAK-659 plasma pharmacokinetics; type: in vivo, human; conditions: for AUC0-t increase from day 1 to day 15 / clearance decrease from day 1 to day 15: with paclitaxel
[4] = tested on: patients with acute myeloid leukemia (AML); conditions: TAK-659 monotherapy, doses of up to 160 mg daily; cited from earlier work

SMILES	increase in exposure (AUC), cycle 1 day 15 compared with cycle 1 day 1 [1]	reduction in clearance, cycle 1 day 15 compared with cycle 1 day 1 [1]	patients with paclitaxel dose reduced ([2]; Nine of 49 patients, given with TAK-659)	substrate for CYP3A4, a major drug metabolizing enzyme (CYP3A4)	increase in terminal elimination half-life from day 1 to day 15 ([3]; 60-mg dosing cohort, not statistically significant (P = 0.1650))	AUC0-t increase from day 1 to day 15 ([3]; 60-mg dosing group)	clearance decrease from day 1 to day 15 ([3]; 60-mg dosing group)	AUC0-t increase from day 1 to day 15 ([3]; 80-mg dosing group)	clearance decrease from day 1 to day 15 ([3]; 80-mg dosing group)	AUC0-t increase from day 1 to day 15 ([3]; 100-mg dosing group)	clearance decrease from day 1 to day 15 ([3]; 100-mg dosing group)	MTD [4]	patients with dose of TAK-659 reduced ([2]; Six of 49 patients, given with paclitaxel)	recommended phase II dose of TAK-659 ([2]; oral, combined with paclitaxel)	patients who needed a second dose reduction of TAK-659 ([2]; two of 49 patients, given with paclitaxel)
CC(=O)O[C@H]1C(=O)[C@@]2(C)[C@H]([C@H](OC(=O)c3ccccc3)[C@]3(O)C[C@H](OC(=O)[C@H](O)[C@@H](NC(=O)c4ccccc4)c4ccccc4)C(C)=C1C3(C)C)[C@]1(OC(C)=O)CO[C@@H]1C[C@@H]2O [Paclitaxel, paclitaxel, reference compound]	~28%	~20%	18%	substrates	–	–	–	–	–	–	–	–	–	–	–
Cn1cc(-c2nc(N[C@@H]3CCCC[C@@H]3N)c(F)c3c2C(=O)NC3)cn1 [TAK-659, mivavotinib]	–	–	–	substrates	41%	40%	36%	66%	31%	91%	46%	not reached	12%	80 mg daily	4%
